Structures are written as SMILES.

The subject of this assay is PC-3M-luc tumor cells. Nature of the assay: PC-3M-luc bone metastatic prostate model. It is filed as in vivo, nude mice. Particulars: 15 mg/kg i.p. 3 times per week. As for the experimental part:
Cell lines. Metastatic human prostate cell line PC-3M expressing null p53, del PTEN, VEGFR, FGFR and stably transfected with a construct of luciferase were obtained under a licensing agreement with Xenogen.
In vivo efficacy studies. […]. Animals received sterile rodent chow and water ad libitum and were housed in sterile filter-top cages with 12 hour light/dark cycles. All experiments were conducted under the guidelines of the Association for Assessment and Accreditation of Laboratory Animal Care International. PC-3M luc bone metastatic model. Human prostate cancer cell line PC-3M-luc cells (1.5×10^6 cells) stably transfected with a construct of luciferase were injected via intracardiac injections. Bioluminescent imaging (Xenogen's IVIS® imaging system) was used to non-invasively monitor the in vivo growth and metastasis of PC-3M-luc tumors after cell inoculation. Nearly all PC-3M-luc tumor cell-injected animals developed prostate lesions, which were mainly localized in the femur, and mandibles. […]. Mice were monitored daily and were euthanized when moribund.
Immunohistochemistry. Bone (femurs, mandible) samples were decalcified (Protocol™, Fisher Diagnostics, Middletown, Va.). Paraffin blocks were sectioned to […] thickness and placed on positively charged glass slides. Tissues were stained with hematoxylin and eosin for general tissue morphology and identification of PC-3M cells in bone.
Nude mice were inoculated with PC-3M-Luc cells intracardiacally with 1.5×10^6 cells. […]. The PC-3M-luc cell lines were purchased from Xenogen and the mice were imaged using Xenogen's IVIS® imaging system.

`CC(=O)O[C@H]1C(=O)[C@@]2(C)[C@H]([C@H](OC(=O)c3ccccc3)[C@]3(O)C[C@H](OC(=O)[C@H](O)[C@@H](NC(=O)c4ccccc4)c4ccccc4)C(C)=C1C3(C)C)[C@]1(OC(C)=O)CO[C@@H]1C[C@@H]2O` [taxol, reference compound]: the “Treatment efficacy vs. vehicle” value is recorded as “No difference in treatment efficacy”.

These data come from patent US20100173873A1, “TREATMENT OF METASTASIZED TUMORS” (Novartis Vaccines and Diagnostics, Inc., priority 2005, published 2010).
